Patent US6878690B2, “Compounds and methods” (PharmAxis Pty Ltd., priority 2000, dated 2005)
Values joined by “and” are separate entries in the source; they are usually repeats but may differ in a detail not shown here. Equal entries are not always repeated.

How the values were obtained:
[1] = tested on: T lymphocyte migration into the right ear; test: Inhibition of in vivo migration of T lymphocytes into extra lymphatic tissues (picryl chloride treated ear); parameters: species or system Balb/C mice; conditions: 5 mg per mouse, IV, 9 to 10 hours after cell transfer
Description: T lymphocytes are known to migrate from the blood stream into tissues, including tissues that contain an antigen to which they can respond. An in vivo example of T lymphocyte migration involves the intravenous injection of radioisotopically- or fluorescently-labelled antigen-specific T cells into a mammal that has the antigen present in one or more of its tissues. An assessment of the degree to which the injected T cells have accumulated in the antigen-containing tissue can be made either by measuring the amount of radioactivity present in the tissue or analysing the tissue histologically to determine the number of infiltrated fluorescently labelled cells. […] For example, in the case of a CNS antigen the cells will localise in the brain and spinal cord and the number of labelled cells that have accumulated there can then be determined. […] Within a short time of cell transfer sensitised T cells begin to accumulate in the haptenised tissue and eight to twenty-four hours later the tissue can be removed and the cell accumulation assessed. In the case of fluorescently-labelled cells their accumulation is assessed histologically and in the case of the radio-labelled cells accumulation is assessed by counting radio active decay in a suitable device. […]

[2] = tested on: lymphocyte migration into the spleen; test: Inhibition of lymphocyte migration into lymphoid tissue (spleen); assay type: in vivo, Balb/C mice; conditions: intravenous dose of 5 mg of test compound together with labelled lymphocytes; spleens removed 1.5 hours after injection
Description: In the present example, spleens from specific pathogen free 6-8 week old female Balb/C mice [19-21 g] were used to prepare a single cell suspension in the usual manner in mixed lymphocyte culture medium (DMEM plus glucose, folic acid, L-asparagine, sodium bicarbonate, L-glutamine, sodium pyruvate, HEPES, 2-mercaptoethanol, penicillin, streptomycin, neomycin, and 2% fetal calf serum) by pushing through a stainless steel screen. Following cell collection the red blood cells were lysed in the usual manner by treating with a solution of ammonium chloride, EDTA and sodium hydrogen carbonate (pH 7.3) and the preparation strained (Falcon 2350 cell strainer). All cell preparative steps were performed on ice.
In order to deplete the preparation of B lymphocytes, the cells were suspended in purified rat anti-mouse CD45/B220 antibody (RA3-6B2 clone; PharMingen, USA) at a concentration of 4×10^7 cells per ml and incubated on ice for 20 minutes. An equal volume of mixed lymphocyte culture medium (as above) was then added and the cells centrifuged (200× g) and resuspended at a concentration of 1×10^7 cells per ml in BioMag goat ant-rat IgG (H&L) linked to magnetic beads (Bio Mag; Perseptive Diagnostics, Polysciences Inc, USA). Following a 20 minute incubation on ice, with agitation every 5 minutes, the goat anti-rat IgG/antibody complex was removed using magnetic separation (Dynal MPC-6, Dynal, USA). The magnetic separation procedure was repeated 4 times giving a cell population containing approximately 80-90% T lymphocytes (determined by FACS analysis).
The cells were then washed in Hanks media, resuspended in 5 ml of Hanks, and radio-labelled for 30 minutes at 37° C. with sodium chromate solution (^51Cr, 34 MBq/ml, Amersham, UK). The labelled cells were washed in PBS centrifuged (200×g) and a portion were resuspended at a concentration of 3×10^7 cells/ml in either PBS (negative control), or PBS containing the test compound (25 mg/ml), and stored on ice. Balb/C mice in the negative control and treatment groups received a volume of 0.2 ml of the labelled cell preparation by a lateral tail vein injection. Negative control mice received 0.2 ml of PBS together with 6×10^6 51chromium-labelled lymphocytes, and mice from the treated groups received an intravenous dose of 5 mg of the test compound together with 6 million ^51chromium-labelled lymphocytes. […]
Spleens from the recipient mice were removed 1.5 hours after injection and the cell-associated radioactivity (CPM) determined using a gamma counter (Packard Auto-Gamma 5650. IL, USA). Results (inhibition of lymphocyte migration into the spleen) were expressed as a percentage reduction in the CPM of the spleens from treated animals compared with negative controls.

[3] = tested on: DTH response to 2,4-dinitrofluorobenzene (DNFB); test: Delayed-type hypersensitivity (DTH) response to DNFB, ear swelling; assay type: in vivo, Balb/C mice
Description: In the present Example, a murine model of Type IV hypersensitivity or delayed-type hypersensitivity (DTH) response to cutaneous contact with the chemical hapten 2,4-dinitrofluorobenzene (DNFB) (Aldrich Chemical Company Inc, USA) was used as a model to measure the anti-inflammatory effects of compounds of the present invention. Specific pathogen-free 8-12 week old female Balb/C mice, weighing 19-21 g, were sensitised in a similar manner to that described by Klimuk et al., (Klimuk et al., 1999) by applying a solution of DNFB (0.5% in acetone:olive oil (4:1, v/v); 30 microliters,) onto a 2 cm^2 shaved area of the abdomen. After 7 days, the animals were anesthetised with diethyl ether and 8 microliters of DNFB (0.35% in acetone:olive oil (4:1, v/v) was applied to the dorsal and ventral surfaces of the right pinna. Prior to regaining consciousness, the mice were implanted intraperitoneally with Alzet 2001 mini-osmotic pumps (Alza Corp., Palo Alto Calif., USA) containing phosphoric acid mono-[6-(3-hexyloxy-propyl)-3,4,5-trihydroxy-tetrahydro-pyran-2-ylmethyl] ester, sodium salt in normal saline. The dose delivered was 50 mg/kg/day. Control animals for this group received saline delivered in identical mini-osmotic pumps. A second experimental group of mice received phosphoric acid mono-[3-(3,4,5-trihydroxy-6-phosphonooxymethyl-tetrahydro-pyran-2-yl)-propyl] ester disodium salt via one-week delivery Alzet 2001 mini-osmotic pumps implanted intraperitoneally. This compound was delivered at a dose of 40 mg/kg/day. Control animals for this group received saline delivered in identical mini-osmotic pumps. In a third experiment a separate group of mice received (3,4,5-trihydroxy-6-phosphonooxymethyl-tetrahydro-pyran-2-yl)-acetic acid disodium salt via one-week delivery Alzet 2001 mini-osmotic pumps that were placed intraperitoneally. This compound was delivered at 45 mg/kg/day. The control group for this experiment received identical mini-osmotic pumps containing normal saline. In a fourth experiment a group of mice received 3-phenyl-2-[2-(3,4,5-trihydroxy-6-phosphonooxymethyl-tetrahydro-pyran-2-yl)-acetylamino]-propionic acid monosodium salt via one-week delivery Alzet 2001 mini-osmotic pumps that were placed subcutaneously. This compound was delivered at 62 mg/kg/day. The control group for this experiment received identical mini-osmotic pumps containing normal saline. In a fifth experiment a group of mice received hexanoic acid 3-(3,4,5-trihydroxy-6-phosphonooxymethyl-tetrahydro-pyran-2-yl)-propyl ester sodium salt via one-week delivery Alzet 2001 mini-osmotic pumps that were placed subcutaneously. This compound was delivered at 40 mg/kg/day. The control group for this experiment received identical mini-osmotic pumps containing normal saline.
Twenty-four hours after challenge the mice were lightly anesthetised with diethyl ether and the thickness of the left and right pinnae measured (in millimeters) using a dial gauge micrometer (Interapid, Switzerland). Care was taken to measure only the outer two thirds of the ear. The increase in ear thickness initiated by the DTH response was determined by subtracting the measurement of the left ear (untreated) from the right ear (challenged).
In Table 4, values in the columns labeled Left and Right are measurements of ear thickness in millimeters of the control and challenged ears respectively.

Row | Compound | Percent inhibition of T cell migration [1] [%] | Percent Inhibition (relative to negative controls) of lymphocyte migration into spleens [2] [%] | Mean percentage decrease in ear swelling in treated animals ([3]; 45 mg/kg/day intraperitoneally, versus saline controls) | Mean Difference, Treated ([3]; group mean, 45 mg/kg/day intraperitoneally, saline control mean 0.068) [millimeters] | Difference (right minus left ear), Treated ([3]; individual mice, 45 mg/kg/day, mini-osmotic pump intraperitoneally, 24 hours after challenge, disodium salt) | Right ear thickness, Treated ([3]; individual mice, challenged ear, 45 mg/kg/day, mini-osmotic pump intraperitoneally, 24 hours after challenge, disodium salt) | Left ear thickness, Treated ([3]; individual mice, control (unchallenged) ear, 45 mg/kg/day, mini-osmotic pump intraperitoneally, 24 hours after challenge, disodium salt)
1 | Phenylethyl (3,4,5-trihydroxy-6-phosphonooxymethyl-tetrahydro-pyran-2-yl)-acetic acid ester | 26.1 | – | – | – | – | – | –
2 | O=C([O-])CC1OC(COP(=O)(O)O)C(O)C(O)C1O.O=C([O-])CC1OC(COP(=O)(O)O)C(O)C(O)C1O.[Na+].[Na+] (stereo not shown) [(3,4,5-trihydroxy-6-phosphonooxymethyl-tetrahydro-pyran-2-yl)-acetic acid disodium salt] | – | 85.5 | Mean percentage decrease in ear swelling intreated animals: 29.4% | 0.048 | 0.06 millimeters (2×) and 0.05 millimeters (3×) and 0.03 millimeters (3×) and 0.07 millimeters | 0.27 millimeters (3×) and 0.24 millimeters (2×) and 0.29 millimeters and 0.26 millimeters (3×) | 0.21 millimeters (6×) and 0.22 millimeters (2×) and 0.23 millimeters
